Key:
[1] = molecular target: E. coli β-glucuronidase (Escherichia coli, UniProt P05804); experiment: Hydrolysis of glucuronides by E. coli β-glucuronidase; assay type: biochemical; conditions: pH 6.8; for Hydrolysis of Glucuronides: E. coli enzyme, initial rate, enzyme diluted so that PGA rates are equivalent
[2] = molecular target: T1, human sweat β-glucuronidase (Homo sapiens, UniProt P08236); experiment: Hydrolysis of model glucuronides by human sweat glucuronidase; assay type: biochemical; conditions: for Hydrolysis of Glucuronides: dialyzed human sweat, initial rate, enzyme diluted so that PGA rates are equivalent
T1 sequence (P08236 23-651): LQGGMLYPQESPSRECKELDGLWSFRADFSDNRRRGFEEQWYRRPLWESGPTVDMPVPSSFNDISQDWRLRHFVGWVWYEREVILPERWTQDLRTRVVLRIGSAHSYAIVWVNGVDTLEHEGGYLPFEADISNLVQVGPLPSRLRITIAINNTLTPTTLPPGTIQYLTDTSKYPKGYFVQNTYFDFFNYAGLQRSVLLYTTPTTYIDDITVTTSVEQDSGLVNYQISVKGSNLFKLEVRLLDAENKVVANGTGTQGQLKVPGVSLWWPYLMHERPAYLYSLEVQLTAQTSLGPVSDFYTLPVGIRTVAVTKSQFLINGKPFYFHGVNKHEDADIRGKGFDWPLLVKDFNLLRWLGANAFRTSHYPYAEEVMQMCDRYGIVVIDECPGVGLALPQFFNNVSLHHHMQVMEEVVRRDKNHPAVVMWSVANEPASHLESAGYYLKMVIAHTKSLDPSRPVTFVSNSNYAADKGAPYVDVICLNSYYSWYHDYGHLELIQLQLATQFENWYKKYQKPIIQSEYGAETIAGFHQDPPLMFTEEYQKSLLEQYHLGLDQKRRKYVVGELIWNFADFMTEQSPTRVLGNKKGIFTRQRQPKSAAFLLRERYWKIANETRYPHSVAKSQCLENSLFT
Procedure: Sweat was obtained from human volunteers by collection from the axilla during high temperature (>41° C.) in a sauna. The sweat was clarified by centrifugation at 20,000 g for 30 min. This clarified sweat was then either utilized directly in hydrolysis studies or dialyzed against 100 mM NaCl, 50 mM sodium acetate, pH 5.0 prior to use. […] Most of the data presented herein was generated with dialyzed preparations.
β-glucuronidase activity was assayed in the sweat by hydrolysis of phenolphthalein glucuronide. Briefly, this assay was carried out as follows: to an aliquot of undialyzed sweat was added an equal volume of buffer comprising 100 mM NaCl, 100 mM sodium acetate, pH 5.0 (this step was unnecessary when assaying dialyzed sweat) followed by 10 μl of a 100 mg/ml phenolphthalein glucuronide solution (Sigma Chemical, St. Louis, Mo.). The reaction mixture was then incubated at 37° C. After 30 min an aliquot of the reaction mixture was added to a five-fold excess of a 0.2 M glycine buffer, pH 10.4 and the absorbance wa determined at 540 nm. The activity was determined by comparison to a known amount of E. coli β-glucuronidase (Sigma, Type VII) run under standard conditions.
A variety of glucuronides were synthesized and tested for their ability to be hydrolyzed by human sweat glucuronidase. […] These hydrolysis reactions were all carried out under similar conditions, and the extent of hydrolysis was determined at the various time points by HPLC analysis of the reaction mixture.
Generally, dialyzed preparations of sweat were used for the reasons discussed earlier. […] A typical experiment was done by bringing the enzyme solution (50-100 U/ml) to 0.01 to 0.05% in the glucuronide to be tested. A zero time aliquot was withdrawn and stored frozen; the remaining reaction mixture was incubated at 37° C. Aliquots were taken at various time points for rate determinations. These aliquots were stored at -20° C. until analysis by HPLC.
High pressure liquid chromatography of the aliquots drawn from the hydrolysis reactions allowed the separation of the aglycon from the glucuronide in all cases. The nmoles released at any given time were calculated from the absorption at 254 nm and the known extinction coefficient of the compound. Rates are given as initial rates which are determined by plotting nmoles aglycon vs. time.

[3] = molecular target: T2, bovine liver β-glucuronidase (Bos taurus, UniProt A3KMY8); experiment: Hydrolysis of glucuronides by bovine liver β-glucuronidase; assay type: biochemical; conditions: bovine liver enzyme, pH 5.0; initial rate; enzyme diluted so that PGA rates are equivalent
T2 sequence (A3KMY8 24-652): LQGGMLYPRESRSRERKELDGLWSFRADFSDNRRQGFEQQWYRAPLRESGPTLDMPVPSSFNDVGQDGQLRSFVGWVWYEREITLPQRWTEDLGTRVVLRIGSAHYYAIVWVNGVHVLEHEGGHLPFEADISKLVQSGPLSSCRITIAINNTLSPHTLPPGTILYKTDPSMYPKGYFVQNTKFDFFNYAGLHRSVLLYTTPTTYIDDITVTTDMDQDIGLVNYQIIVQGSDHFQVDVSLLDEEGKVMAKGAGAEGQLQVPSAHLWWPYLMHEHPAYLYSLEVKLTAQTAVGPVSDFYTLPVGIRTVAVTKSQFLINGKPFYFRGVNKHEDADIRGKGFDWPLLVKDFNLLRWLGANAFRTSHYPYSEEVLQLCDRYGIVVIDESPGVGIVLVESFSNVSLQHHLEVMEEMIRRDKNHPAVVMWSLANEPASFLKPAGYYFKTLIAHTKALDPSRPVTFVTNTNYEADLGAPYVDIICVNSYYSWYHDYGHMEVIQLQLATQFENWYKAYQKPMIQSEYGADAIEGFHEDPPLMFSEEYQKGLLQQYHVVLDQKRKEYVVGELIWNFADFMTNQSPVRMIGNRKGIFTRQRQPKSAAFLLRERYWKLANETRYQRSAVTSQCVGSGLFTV

[4] = system: rabbit eye pupil; experiment: Mydriasis assay (rabbit eye pupil diameter); assay type: in vivo; conditions: for Change in Pupil Diameter as a function of time: error ± 0.5 mm; for mydriatic potency compared to the parent drugs: compared to parent drugs tropicamide and scopolamine
Procedure: The rabbit eye pupil diameter was measured with a clear plastic ruler after exposing the eye to 50 W light at a distance of 6 in. Exposure to light contracts the pupil to approximately 3 mm diameter.
The addition of the compounds to be tested is done in a maximum volume of 150 μl, in 50 mM NaPO4, pH 6.8, 100 mM NaCl. The sample was applied in the upper corner of the eye and was allowed to completely cover the cornea after each addition. Pupil dilation was measured at 3 separate intervals following the procedure outlined above. Buffer controls were run in one eye and the anticholinergic in the other.

[5] = Solubility of aglycon in the enzymatic reaction mixture; assay type: physicochemical; conditions: aqueous tris hydrochloride reaction mixture
Procedure: Due to the low solubility of this compound, excess solid material is added to the reaction mixture so that a saturated solution of aglycon is maintained throughout the reaction. The glucuronide is isolated by HPLC with the reversed phase system described in Example 2. It is characterized by hydrolysis with excess E. coli β-glucuronidase (1000 U/ml, pH 6.8) (Sigma, Type […]) for 1 hr at 37° C. which quantitatively releases the aglycon as assayed by HPLC.
The glucuronide of scopolamine p-hydroxybenzoate is synthesized with uridine 5'-diphosphoglucuronic acid transferase by first removing all or substantially all of the esterase activity from liver microsomes. These esterases are removed since they will hydrolyze the aglycon. This operation can be done by washing the liver microsomes in a suitable buffer, as described herein, or by other equivalent washing means known to persons in this art. Advantageously, an esterase inhibitor can be used to supplement the washing of the microsomes. For example, a competitive inhibitor of the esterases such as lysine ethyl ester, and the like, or a suicide substrate such as phenylmethylsulfonyl fluoride, and the like, can be used. […] The glucuronide is characterized by hydrolysis with excess E. coli β-glucuronidase (100 U/ml, pH 6.8) (Sigma, Type VII) for 1 hr at 37° C. which quantitatively releases the aglycon as assayed by HPLC.

[6] = levels 100-fold greater than required to effect a strong mydriatic response with the aglycon

Chain of E. coli β-glucuronidase (P05804 whole entry): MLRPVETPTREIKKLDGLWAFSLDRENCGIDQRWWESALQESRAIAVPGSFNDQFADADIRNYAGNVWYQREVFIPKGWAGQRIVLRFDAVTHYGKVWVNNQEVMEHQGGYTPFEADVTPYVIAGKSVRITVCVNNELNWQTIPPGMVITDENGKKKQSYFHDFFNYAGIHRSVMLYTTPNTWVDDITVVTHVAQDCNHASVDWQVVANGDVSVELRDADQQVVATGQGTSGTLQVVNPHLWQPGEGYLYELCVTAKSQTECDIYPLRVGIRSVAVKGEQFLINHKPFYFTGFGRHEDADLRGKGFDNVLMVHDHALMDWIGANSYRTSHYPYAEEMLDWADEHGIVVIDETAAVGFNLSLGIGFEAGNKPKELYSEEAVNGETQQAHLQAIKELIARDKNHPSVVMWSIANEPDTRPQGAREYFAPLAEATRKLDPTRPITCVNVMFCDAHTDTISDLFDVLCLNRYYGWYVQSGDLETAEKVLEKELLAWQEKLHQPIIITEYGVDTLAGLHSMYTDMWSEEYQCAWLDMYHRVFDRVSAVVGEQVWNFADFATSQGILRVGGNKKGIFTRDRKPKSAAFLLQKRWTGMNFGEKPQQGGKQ

For O=C1OC(c2ccc(O)cc2)(c2ccc(O[C@@H]3O[C@H](C(=O)O)[C@@H](O)[C@H](O)[C@H]3O)cc2)c2ccccc21 (stereo partly shown) [Phenolphthalein glucuronide, phenolphthalein glucuronide], the “Hydrolysis of Glucuronides” value [1] was 200 nmoles/hour/100 units, the “Hydrolysis of Glucuronides” value ([2]; pH 5.0) was 200 nmoles/hour/100 units and the “Hydrolysis of Glucuronides” value [3] was 200 nmoles/hour/100 units.
In the case of CN1C2CC(OC(=O)C(COC3OC(C(=O)O)C(O)C(O)C3O)c3ccccc3)CC1C1OC12 [Scopolamine glucuronide, scopolamine O-β-D-glucuronide], the “Hydrolysis of Glucuronides” value [1] was 60 nmoles/hour/100 units, the “Hydrolysis by E. coli enzyme (in words)” value [1] was “lower, but significant, activity” and the “Hydrolysis of Glucuronides” value ([2]; pH 5.0) was < 0.5 nmoles/hour/100 units. For the same molecule, the “Hydrolysis by human sweat enzyme (in words)” value ([2]; pH 5.0) was “no scopolamine could be detected”, the “Hydrolysis by human sweat enzyme (in words)” value ([2]; pH 6.8) was “no hydrolysis” and the “Hydrolysis of Glucuronides” value [3] was 25 nmoles/hour/100 units.
With CN1C2CC(OC(=O)C(COC(=O)c3ccc(OC4OC(C(=O)O)C(O)C(O)C4O)cc3)c3ccccc3)CC1C1OC12 [Scopolamine p-Hydroxybenzoy-O-β-D-Glucuronic Acid] the “Hydrolysis of Glucuronides” value ([2]; pH 5.0) was 40 nmoles/hour/100 units, the “Change in Pupil Diameter as a function of time” value (from here on “Change in Pupil Diameter”) ([4]; 11.4 ug applied, in 45 min) was 0 mm and the “mydriatic response (in words)” value [4, 6] was “No mydriatic response”.
In the case of CN1C2CC(OC(=O)C(COC(=O)c3ccc(O)cc3)c3ccccc3)CC1C1OC12 (stereo not shown) [Scopolamine p-hydroxybenzoate, Scopolamine p-Hydroxybenzoate], the solubility [5] was “low”, the “mydriatic response (in words)” value ([4]; 0.1 μg) was “sufficient for a response” and the “Change in Pupil Diameter” value ([4]; 0.1 ug applied, in 15 min) was 7 mm. For the same molecule, the “mydriatic potency compared to the parent drugs” value [4] was “potent mydriatic agents”.
For CN1[C@@H]2C[C@@H](OC(=O)[C@H](CO)c3ccccc3)C[C@H]1[C@@H]1O[C@@H]12 [Scopolamine], the “mydriatic response (in words)” value ([4]; 0.6 μg) was “nonmydriatic”, the “Change in Pupil Diameter” value ([4]; 0.6 ug applied, in 15 min) was 0 mm and the “Change in Pupil Diameter” value ([4]; 6 ug applied, in 15 min) was 6 mm. The “Change in Pupil Diameter” value ([4]; 60 ug applied, in 10 min) was 6 mm.
With COC(=O)C(CO[C@@H]1O[C@H](C(=O)O)[C@@H](O)[C@H](O)[C@H]1O)c1ccccc1 (stereo partly drawn) [Tropic acid methyl ester glucuronide, Tropic Acid Methyl Ester-O-β-D-Glucuronide] the “Hydrolysis of Glucuronides” value ([2]; pH 5.0) was 2.6 nmoles/hour/100 units.
In the case of CCN(Cc1ccncc1)C(=O)C(CO[C@@H]1O[C@H](C(=O)O)[C@@H](O)[C@H](O)[C@H]1O)c1ccccc1 (stereo partly drawn) [Tropicamide glucuronide, tropicamide O-β-D-glucuronide], the “Hydrolysis of Glucuronides” value [1] was > 150 nmoles/hour/100 units, the “Hydrolysis by E. coli enzyme (in words)” value [1] was “rapidly hydrolyzes” and the “Hydrolysis of Glucuronides” value ([2]; pH 5.0) was 1.6 nmoles/hour/100 units. The “Hydrolysis by human sweat enzyme (in words)” value ([2]; pH 5.0) was “Trace amounts”, the “Hydrolysis by human sweat enzyme (in words)” value ([2]; pH 6.8) was “no hydrolysis” and the “Hydrolysis of Glucuronides” value [3] was 24 nmoles/hour/100 units. The “Change in Pupil Diameter” value ([4]; 600 ug applied, in 30 min) was 0 mm.
In the case of CCN(Cc1ccncc1)C(=O)C(COC(=O)c1ccc(O[C@@H]2O[C@H](C(=O)O)[C@@H](O)[C@H](O)[C@H]2O)cc1)c1ccccc1 (stereo partly drawn) [Tropicamide p-Hydroxybenzoyl-O-β-D-Glucuronic Acid], the “Hydrolysis of Glucuronides” value ([2]; pH 5.0) was 36 nmoles/hour/100 units, the “Change in Pupil Diameter” value ([4]; 600 ug applied, in 25 min) was 0 mm and the “mydriatic response (in words)” value [4, 6] was “No mydriatic response”.
For CCN(Cc1ccncc1)C(=O)C(COC(=O)c1ccc(O)cc1)c1ccccc1 (stereo not shown) [Tropicamide p-hydroxybenzoate, tropicamide p-hydroxybenzoate], the solubility [5] was “low”, the “mydriatic response (in words)” value ([4]; 5.5 μg) was “clearly mydriatic” and the “Change in Pupil Diameter” value ([4]; 5.5 ug applied, in 35 min) was 4 mm. For the same molecule, the “mydriatic potency compared to the parent drugs” value [4] was “potent mydriatic agents”.
In the case of CCN(Cc1ccncc1)C(=O)C(CO)c1ccccc1 (stereo not shown) [Tropicamide], the “mydriatic response (in words)” value ([4]; 20 μg) was “weak response”.
With COC(=O)Cc1ccc(O[C@@H]2O[C@H](C(=O)O)[C@@H](O)[C@H](O)[C@H]2O)cc1 [p-Hydroxyphenylacetic Acid Methyl Ester-O-β-D-Glucuronide] the “Hydrolysis of Glucuronides” value ([2]; pH 5.0) was 37 nmoles/hour/100 units.

Reference: patent US4546096A, “Anticholinergic glucuronides and antiperspirant use thereof” (Repligen Corporation, priority 1984, dated 1985)
